Calls of active or inactive are those of the source.
How the values were obtained:
[1] = Trypanosoma cruzi growth suppression in host cells – NIH3T3 host cells, beta-gal luminescence, confirmation (AID 2044); type: functional, cell-based;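 also: intracellular parasites grown in NIH/3T3 mouse fibroblasts as host cells; luminescent beta-galactosidase reporter signal from transgenic T. cruzi replicating inside host cells; inhibitors lower the luminescence signal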
[2] = NIH3T3 cell viability loss – ATP luminescence, mouse fibroblasts, counter-screen, dose response (AID 2010); type: functional, cell-based;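 also: cells exposed to compound for about 90 hours before reading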
Cytochrome P450 2D6 = Cytochrome P450 2D6 (Homo sapiens, UniProt P10635);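 also: CYP2D6 member of a cytochrome P450 panel assay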
[3] = target: Luciferin 4-monooxygenase (Photinus pyralis, UniProt P08659); assay: inhibition of purified Photinus pyralis luciferase – biochemical, luminescence, dose response (AID 1891)
[4] = Luminescence Cell-Based Dose Confirmation HTS to Identify Inhibitors of Platelet Dense Granule Release. [Related pubchem assays: 1663 (Primary HTS), 1678 (Summary of Project)]; type: functional
Cytochrome P450 2C19 = Cytochrome P450 2C19 (Homo sapiens, UniProt P33261); assay: Cytochrome panel assay with activity outcomes. Panel member name: p450-cyp2c19 Compounds with AC50 equal or less than 10 uM are considered active; type: functional
[5] = viability of uninfected HEp-2 cells – cell-based, HTS, cytotoxicity control for RSV inhibitor project, dose response (AID 2410); type: functional; conditions: human respiratory syncytial virus
[6] = target: T1, Corticotropin-releasing factor receptor 2/Corticotropin-releasing factor-binding protein (Homo sapiens, UniProt P24387+Q13324); assay: activators of CRF receptor 2 with binding protein – uHTS hits, confirmation (AID 602473); type: functional; conditions: read-out: EC50_Mean
T1 sequence (Q13324 whole entry): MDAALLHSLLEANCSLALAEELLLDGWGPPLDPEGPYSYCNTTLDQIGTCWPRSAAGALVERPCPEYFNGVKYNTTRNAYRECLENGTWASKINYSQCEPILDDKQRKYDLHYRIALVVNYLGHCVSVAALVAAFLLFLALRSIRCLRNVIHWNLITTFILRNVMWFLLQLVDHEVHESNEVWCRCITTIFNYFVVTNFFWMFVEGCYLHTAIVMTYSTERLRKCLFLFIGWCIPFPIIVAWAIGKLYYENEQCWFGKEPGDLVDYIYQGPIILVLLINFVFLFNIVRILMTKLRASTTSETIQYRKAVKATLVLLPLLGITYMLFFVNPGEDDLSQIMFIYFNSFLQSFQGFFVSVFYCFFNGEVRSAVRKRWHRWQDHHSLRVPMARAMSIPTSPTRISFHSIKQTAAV
T1 sequence (P24387 whole entry): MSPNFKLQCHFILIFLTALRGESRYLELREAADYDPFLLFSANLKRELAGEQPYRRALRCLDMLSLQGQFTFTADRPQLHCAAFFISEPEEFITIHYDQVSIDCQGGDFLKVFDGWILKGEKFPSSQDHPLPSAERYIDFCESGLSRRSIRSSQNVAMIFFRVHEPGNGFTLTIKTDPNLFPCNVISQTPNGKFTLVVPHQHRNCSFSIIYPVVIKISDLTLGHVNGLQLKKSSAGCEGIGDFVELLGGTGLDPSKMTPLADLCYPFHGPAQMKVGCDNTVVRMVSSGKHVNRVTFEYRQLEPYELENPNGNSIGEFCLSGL

Streptococcus = assay: GAS UMAA2166 growth inhibition – luminescence, BacTiterGlo, counter-screen for streptokinase expression inhibitor project, dose response (AID 1915); type: functional, organism-based;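 also: potency for reduction of bacterial viability or growth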
[7] = test system: Streptococcus sp. 'group A'; assay: Streptococcus pyogenes SK(-)GAS viability under kanamycin – luminescence, BacTiterGlo, confirmation, counter-screen for streptokinase expression inhibitor project, dose response (AID 1900); type: functional, organism-based

Cytochrome P450 2D6, sequence (P10635 whole entry): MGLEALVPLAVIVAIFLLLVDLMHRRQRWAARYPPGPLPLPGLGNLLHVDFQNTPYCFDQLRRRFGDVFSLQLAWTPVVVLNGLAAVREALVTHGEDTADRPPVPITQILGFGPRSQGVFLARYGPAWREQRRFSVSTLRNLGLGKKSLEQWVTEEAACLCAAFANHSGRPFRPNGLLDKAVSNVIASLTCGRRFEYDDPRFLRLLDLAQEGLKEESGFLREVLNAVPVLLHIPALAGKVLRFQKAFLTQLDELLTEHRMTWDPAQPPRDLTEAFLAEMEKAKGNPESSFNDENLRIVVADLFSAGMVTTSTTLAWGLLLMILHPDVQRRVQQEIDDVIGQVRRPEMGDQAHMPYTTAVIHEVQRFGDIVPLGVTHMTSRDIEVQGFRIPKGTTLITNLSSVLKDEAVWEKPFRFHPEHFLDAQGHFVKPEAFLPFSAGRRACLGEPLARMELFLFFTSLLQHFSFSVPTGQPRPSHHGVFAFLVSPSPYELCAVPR
Cytochrome P450 2C19, sequence (P33261 whole entry): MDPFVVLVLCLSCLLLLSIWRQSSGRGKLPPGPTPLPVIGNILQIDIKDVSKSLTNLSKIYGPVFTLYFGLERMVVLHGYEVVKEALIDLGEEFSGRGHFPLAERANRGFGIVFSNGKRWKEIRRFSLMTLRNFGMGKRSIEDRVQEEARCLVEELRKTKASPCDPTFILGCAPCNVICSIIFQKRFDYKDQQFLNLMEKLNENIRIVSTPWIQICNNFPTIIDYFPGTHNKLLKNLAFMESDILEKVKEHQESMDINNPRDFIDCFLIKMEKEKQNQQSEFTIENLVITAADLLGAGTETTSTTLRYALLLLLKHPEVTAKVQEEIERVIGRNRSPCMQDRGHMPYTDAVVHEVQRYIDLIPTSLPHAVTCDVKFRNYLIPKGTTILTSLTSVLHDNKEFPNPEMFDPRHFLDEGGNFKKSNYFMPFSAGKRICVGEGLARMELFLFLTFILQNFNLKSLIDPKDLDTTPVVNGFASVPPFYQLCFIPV
Luciferin 4-monooxygenase, sequence (P08659 whole entry): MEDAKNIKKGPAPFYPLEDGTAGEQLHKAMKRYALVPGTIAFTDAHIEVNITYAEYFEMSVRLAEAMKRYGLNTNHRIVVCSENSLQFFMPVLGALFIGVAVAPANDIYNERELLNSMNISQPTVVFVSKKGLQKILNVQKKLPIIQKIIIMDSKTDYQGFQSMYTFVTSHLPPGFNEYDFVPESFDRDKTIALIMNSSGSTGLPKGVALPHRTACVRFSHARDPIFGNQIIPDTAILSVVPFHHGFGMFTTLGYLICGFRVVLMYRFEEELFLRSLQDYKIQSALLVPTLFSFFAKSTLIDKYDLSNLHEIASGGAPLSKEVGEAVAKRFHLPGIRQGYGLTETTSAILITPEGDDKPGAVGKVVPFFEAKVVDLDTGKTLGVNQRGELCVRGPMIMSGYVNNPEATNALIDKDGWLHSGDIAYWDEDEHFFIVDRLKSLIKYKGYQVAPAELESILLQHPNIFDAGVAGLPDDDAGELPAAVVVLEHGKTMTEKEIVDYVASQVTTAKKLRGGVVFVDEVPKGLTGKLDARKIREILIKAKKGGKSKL

## Cc1nn(C)c(Cl)c1CN1CCCC(CCC(=O)NCc2ccccc2F)C1 (stereo not drawn)
[1]
  EC50: 0.181 µM (active)
[2]
  EC50: > 30 µM (not active)

## Cc1nc2c(C(=O)NCc3ccco3)cnn2c(C)c1Cc1ccc(F)cc1Cl
[1]
  EC50: 2.17 µM (active)
[2]
  EC50: > 30 µM (not active)

## Cc1cc2cc3c(cc2nc1SCC(=O)Nc1c(C)cccc1C)CCC3
Cytochrome P450 2D6
  AC50: 14.1 µM (inconclusive)

## CCOC(=O)c1cnc2c(C#N)c(C)nn2c1-c1ccccc1
[3]
  EC50: > 112 µM (not active)
[4]
  EC50: 54.1 µM (active)

## Cc1ccc(/C=C/C(=O)Nc2ccccc2C(N)=O)cc1
[3]
  EC50: 3.26 µM (active)
[4]
  EC50: 22.3 µM (active)

## O=C1OCCC=C1[C@@H](O)CCc1ccccc1
Cytochrome P450 2C19; read-out: AC50
  AC50: 0.316 µM (inconclusive)

## CC1CCCCN1S(=O)(=O)c1ccc(S(=O)(=O)N(Cc2ccccc2)Cc2ccco2)cc1 (stereo not drawn)
[1]
  EC50: 1.09 µM (active)
[2]
  EC50: > 60 µM (not active)

## COc1ccc(N(CC(=O)NCCC2=CCCCC2)S(=O)(=O)c2ccccc2)cc1OC
[1]
  EC50: 3.35 µM (active)
[2]
  EC50: > 60 µM (not active)

## Cc1ccc(-c2nc(SC(C)C(=O)N3CCOCC3)n[nH]2)cc1 (stereo not drawn)
[3]
  EC50: > 112 µM (not active)
[4]
  EC50: > 112 µM (not active)

## COc1ccc(-c2noc(CCCC(=O)NCC3CCCO3)n2)cc1 (stereo not drawn)
[5]
  CC50: 30.3 µM (active)

## CCOc1ccc(C(=O)O/N=C(\N)c2ccccn2)cc1OCC
[3]
  EC50: > 112 µM (not active)
[4]
  EC50: > 112 µM (not active)

## Cc1ccc(C)c(OCC(O)CN2CCc3ccccc3C2)c1C (stereo not drawn)
[5]
  CC50: 46.3 µM (active)

## Cc1ccc(NC(=O)C(=O)NCc2ccc(/C=C(/C#N)C(=O)NCc3cccnc3)o2)cc1
Cytochrome P450 2C19; read-out: AC50
  AC50: 7.08 µM (inconclusive)

## CCc1ccc(C(C(=O)NCc2ccc(OC)cc2)N(CCOC)C(=O)Cc2cccs2)cc1 (stereo not drawn)
Cytochrome P450 2D6
  AC50: 25.1 µM (inconclusive)

## Nc1nn(S(=O)(=O)c2ccccc2)cc1-c1cccc([N+](=O)[O-])c1
[1]
  EC50: 1.83 µM (active)
[2]
  EC50: > 60 µM (not active)

## O=C(CCCc1ccccn1)c1ccccc1
Cytochrome P450 2C19; read-out: AC50
  AC50: 2.51 µM (inconclusive)

## Cc1nn(C)cc1CNC(=O)C1CCC(=O)N(CC2CCCCC2)C1 (stereo not drawn)
[3]
  EC50: > 112 µM (not active)
[4]
  EC50: > 112 µM (not active)

## c1ccc(-c2cc3c(N4CCCC4)ncnc3s2)cc1
[5]
  CC50: > 50 µM (active)

## O=C(c1ccc(Cl)cc1)C1CCCN(Cc2cnn(-c3ccccc3)c2)C1 (stereo not drawn)
[1]
  EC50: 0.503 µM (active)
[2]
  EC50: > 60 µM (inconclusive)

## Cn1c(=O)c2c(SCC(=O)N3CCCc4ccccc43)nc(CC(C)(C)C)nc2n(C)c1=O
[5]
  CC50: > 50 µM (active)

## CCOc1ccccc1C1c2[nH]c3ccccc3c2C[C@H]2C(=O)N(C3CCN(Cc4ccccc4)CC3)CC(=O)N12 (stereo partly drawn)
[1]
  EC50: 2.15 µM (active)
[2]
  EC50: > 60 µM (not active)

## O=C(c1cccc(F)c1)N1CCC2(CCCN(Cc3ccccc3)C2)CC1
Cytochrome P450 2D6
  AC50: 10 µM (inconclusive)

## CCOC(=O)c1c(NC(=O)CN2C(=O)NC3(CCCCC3C)C2=O)sc(C)c1CC (stereo not drawn)
[1]
  EC50: 2.37 µM (active)
[2]
  EC50: > 60 µM (not active)

## CCN(CC)S(=O)(=O)c1ccc(NN=C2CCN(C)CC2)c([N+](=O)[O-])c1
[1]
  EC50: 0.482 µM (active)
[2]
  EC50: > 60 µM (not active)

## COc1cc(OC)c(OC)cc1/C=C1/Cc2ccccc2C1=O
[6]
  EC50: 5.48 µM (active)

## COc1cccc(-c2cc(C(=O)Nc3ccc(N(C)C(C)=O)cc3)c3cc(Br)ccc3n2)c1
[1]
  EC50: 1.83 µM (active)
[2]
  EC50: > 60 µM (not active)

## CCOCCCN1C(=O)CN(C2CCC(C)CC2)C(=O)C1c1ccc(C)cc1 (stereo not drawn)
[3]
  EC50: > 112 µM (not active)
[4]
  EC50: > 112 µM (not active)

## Nc1ccn(-c2ccc(Cl)cc2)c(=O)c1
[3]
  EC50: > 112 µM (not active)
[4]
  EC50: > 112 µM (not active)

## O=C(Nc1cccc(F)c1)N1CCC2(CCNCC2)CC1
Cytochrome P450 2D6
  AC50: 12.6 µM (inconclusive)
Cytochrome P450 2C19; read-out: AC50
  AC50: 20 µM (inconclusive)

## COc1ccc(Cl)cc1Nc1nc(-c2sc(NC(=O)c3ccco3)nc2C)cs1
[5]
  CC50: 35.4 µM (active)

## COC(=O)c1c(NC(=O)C2CC(=O)NN2Cc2ccccc2)sc(C)c1C (stereo not drawn)
[3]
  EC50: > 112 µM (not active)
[4]
  EC50: > 112 µM (not active)

## N#Cc1c(-c2ccc3c(c2)OCO3)ccn2nc(-c3cccc(C(F)(F)F)c3)nc12
Cytochrome P450 2D6
  AC50: 3.16 µM (inconclusive)

## CCN(CC)S(=O)(=O)c1ccc2c(c1)nc(CCC(=O)O)n2C
[3]
  EC50: > 112 µM (not active)
[4]
  EC50: > 112 µM (not active)

## CNc1ccc(Oc2nc([N+](=O)[O-])nn2C)cc1
[1]
  EC50: 1.43 µM (active)
[2]
  EC50: > 60 µM (not active)

## COC(=O)c1c(NC(=O)CN2C(=O)NC3(CCC(C(C)(C)C)CC3)C2=O)sc2c1CCCCC2 (stereo not drawn)
[1]
  EC50: 3.11 µM (active)
[2]
  EC50: > 60 µM (not active)

## O=C(Nc1ncc(Cc2ccc(Cl)cc2Cl)s1)c1ccc([N+](=O)[O-])cc1
[6]
  EC50: > 53 µM (inactive)

## CN(C)CCOC(=O)C1(c2ccccc2)CCCC1
[3]
  EC50: > 112 µM (not active)
[4]
  EC50: > 112 µM (not active)

## c1ccc2c(N3CCCCCC3)nc(-c3ccncc3)nc2c1
[5]
  CC50: 15.9 µM (active)

## CC(=O)OCCN1C(=O)c2cccc3cc([N+](=O)[O-])cc(c23)C1=O
[1]
  EC50: 0.358 µM (active)
[2]
  EC50: > 30 µM (not active)

## O=C(O)CC1(CC(=O)O)Nc2ccccc2SC1=O
Cytochrome P450 2C19
  AC50: inconclusive

## CSc1scc2c1-c1nc(SCC(=O)C(C)(C)C)ncc1CC2
[5]
  CC50: 20.6 µM (active)

## CCc1ccc2nc(O)c(CN(Cc3ccccc3)C(=O)Nc3ccccc3OC)cc2c1
[1]
  EC50: 1.93 µM (active)
[2]
  EC50: > 60 µM (not active)

## COc1ccc(-n2nc3c(N4CCC(C(=O)N5CCCCCC5)CC4)nnc(C)c3c2C)cc1
[1]
  EC50: 0.858 µM (active)
[2]
  EC50: > 60 µM (not active)

## COC(=O)[C@@]1(Cc2ccc(OC)cc2)[C@H]2c3cc(C(=O)N(C)C)n(C)c3C[C@H]2CN1C(=O)c1ccccc1
Cytochrome P450 2C19; read-out: AC50
  AC50: 25.1 µM (inconclusive)

## COC(=O)Cn1c(=N)n(CCN2CCCCC2)c2ccccc21
Cytochrome P450 2D6
  AC50: 44.7 µM (inconclusive)

## Sc1ncnc2c1sc1nc(N3CCOCC3)c3c(c12)CCCC3
[5]
  CC50: > 50 µM (active)

## COc1ccc(CN2CCNC(=O)C2CC(=O)NCC(C)(C)N2CCOCC2)cc1C (stereo not drawn)
[3]
  EC50: > 112 µM (not active)
[4]
  EC50: > 112 µM (not active)

## CCOC(=O)/C=c1/s/c(=C/c2ccc3cc(OC)ccc3c2)c(=O)n1CC(=O)NCc1ccc2c(c1)OCO2
[6]
  EC50: 4.9 µM (active)

## COc1cc(C)c(C)cc1S(=O)(=O)N1CCCc2ccccc21
[6]
  EC50: 5.44 µM (active)

## COc1cc(N2CCOCC2)ncn1
Cytochrome P450 2C19; read-out: AC50
  AC50: 0.00562 µM (inconclusive)

## Cc1cccc(OCC(=O)NNC(=O)CSc2ncc(C#N)c(N)n2)c1
Cytochrome P450 2D6
  AC50: 4.47 µM (inconclusive)
Cytochrome P450 2C19; read-out: AC50
  AC50: 15.8 µM (inconclusive)

## Nc1cccc2c1Cc1cc([N+](=O)[O-])ccc1-2
[6]
  EC50: > 53 µM (inactive)

## Fc1ccc(/C=N/Nc2nccnc2Cl)cc1
[3]
  EC50: 8.1 µM (active)
[4]
  EC50: 1.65 µM (active)

## Cc1c(/C=N/NC(=O)C(NC(=O)c2ccc3c(c2)OCO3)C(C)C)c2ccccc2n1C (stereo not drawn)
[6]
  EC50: 1.24 µM (active)

## CC(=O)c1sc(N/N=C\c2c(O)ccc3ccccc23)nc1C
Streptococcus
  EC50: 7.49 µM (active)
[7]
  EC50: 4.07 µM (active)

## CN(C)c1ccc(/C=N/N=C(N)N)cc1[N+](=O)[O-]
[1]
  EC50: 0.144 µM (active)
[2]
  EC50: > 60 µM (not active)

## NC(=S)N/N=C/c1ccc(-c2cc(Cl)cc(Cl)c2)o1
[1]
  EC50: 2.67 µM (active)
[2]
  EC50: > 60 µM (not active)

## COc1cccc(/C=N/NC(=O)C(=O)N/N=C/c2cccc(OC)c2OC)c1OC
[3]
  EC50: > 112 µM (not active)
[4]
  EC50: > 112 µM (not active)

## COc1cc(O)oc1/C=N/c1ccc(Cl)cc1
Cytochrome P450 2D6
  AC50: 14.1 µM (inconclusive)

## C[C@@H]1CN(CCCn2c3ccccc3c3ccccc32)C[C@H](C)N1 [RIMCAZOLE]
Cytochrome P450 2D6
  AC50: 15.8 µM (inconclusive)

Reference: ChEMBL document CHEMBL1201862, “PubChem BioAssay data set” (2004)
